Laboratory results: US7786113B2, “Heterocyclic carbamate derivatives, their manufacture and use as pharmaceutical agents” (Hoffman-La Roche Inc., priority 2004, dated 2010)

Columns and labels:
Src (p60^c-src) = target: T1, Src (p60^c-src) (Homo sapiens, UniProt P12931); experiment: SRC-Inhibitor-Assay (time-resolved fluorescence kinase assay), Src; assay type: biochemical; settings: ATP 5 μM, peptide 10 μM, enzyme 2.5 U/ml, pH 7.3
T1 construct: purchased UBI, Upstate Biotech, Inc
Excerpt: (§1) The activity of the compounds according to this invention as inhibitors for the src-family tyrosine kinases was shown by using the following assay.
(§2) ATP, Tween™ 20, 4-(2-hydroxyethyl)-1-piperazineethanesulfonic acid (HEPES) were purchased from Roche Molecular Biochemicals, MgCl2 and MnCl2 were purchased from Merck Eurolab, Tris(2-carboxyethyl)phosphine hydrochloride (TCEP) was purchased from Pierce, 384 Well low volume fluorescence plates was purchased from Falcon.
(§3) At first the enzyme is pre-incubated for 15 min. at 15° C. in aqueous solution with corresponding amounts of inhibitors according to this invention. Then the phosphorylation reaction is started by adding a reaction mixture, containing ATP, Peptide and PT66, and subsequent shaking. The proceeding of this reaction is immediately monitored using time resolved fluorescence spectroscopy in a suitable well plate reader.
(§4) The IC50-values can be obtained from the reaction rates by using a non-linear curve fit (XLfit software (ID Business Solution Ltd., Guilford, Surrey, UK))

Lck (p56^lck) = target: T2, Lck (p56^lck) (Homo sapiens, UniProt P06239); experiment: SRC-Inhibitor-Assay (time-resolved fluorescence kinase assay), Lck; assay type: biochemical; settings: ATP 5 μM, peptide 10 μM, enzyme 2.5 U/ml, pH 7.3
T2 construct: purchased UBI, Upstate Biotech, Inc
T2 sequence (P06239 whole entry): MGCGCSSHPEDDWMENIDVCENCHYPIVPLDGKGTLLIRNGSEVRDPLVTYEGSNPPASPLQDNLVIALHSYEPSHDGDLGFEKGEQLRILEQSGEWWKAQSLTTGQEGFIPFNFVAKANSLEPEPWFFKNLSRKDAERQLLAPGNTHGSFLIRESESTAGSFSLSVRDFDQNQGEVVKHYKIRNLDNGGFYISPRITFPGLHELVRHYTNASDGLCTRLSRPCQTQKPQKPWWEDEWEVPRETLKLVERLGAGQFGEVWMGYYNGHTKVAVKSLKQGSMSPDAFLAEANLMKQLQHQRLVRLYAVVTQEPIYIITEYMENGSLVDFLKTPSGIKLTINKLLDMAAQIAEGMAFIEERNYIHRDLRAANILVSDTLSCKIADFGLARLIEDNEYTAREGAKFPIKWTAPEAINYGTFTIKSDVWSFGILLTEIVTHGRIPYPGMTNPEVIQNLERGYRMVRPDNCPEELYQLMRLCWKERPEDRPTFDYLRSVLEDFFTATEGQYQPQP
Excerpt: as §1, §2, §3, §4

T1 sequence (P12931 whole entry): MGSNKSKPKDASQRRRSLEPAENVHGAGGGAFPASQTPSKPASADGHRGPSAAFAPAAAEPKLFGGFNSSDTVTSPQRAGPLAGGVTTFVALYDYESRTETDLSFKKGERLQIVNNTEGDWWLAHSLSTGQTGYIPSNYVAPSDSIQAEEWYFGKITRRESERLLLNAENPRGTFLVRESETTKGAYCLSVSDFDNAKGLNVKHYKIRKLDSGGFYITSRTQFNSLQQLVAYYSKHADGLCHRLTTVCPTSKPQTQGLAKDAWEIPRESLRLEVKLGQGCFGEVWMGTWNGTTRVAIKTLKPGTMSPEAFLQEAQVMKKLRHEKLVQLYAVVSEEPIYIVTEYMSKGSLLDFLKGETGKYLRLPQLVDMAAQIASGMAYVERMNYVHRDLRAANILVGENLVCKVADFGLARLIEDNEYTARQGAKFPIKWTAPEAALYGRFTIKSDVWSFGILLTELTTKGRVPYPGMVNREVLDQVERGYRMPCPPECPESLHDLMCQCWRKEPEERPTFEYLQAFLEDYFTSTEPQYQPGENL

melting point	IC50 (Src (p60^c-src)) [nM]	IC50 (Lck (p56^lck)) [nM]	SMILES
342 °C (dec.)			CC(C)OC(=O)Nc1cnc2[nH]c(-c3ccsc3)nc2c1 [Example 2-7, (2-Thiophen-3-yl-3H-imidazo[4,5-b]pyridin-6-yl)-carbamic acid isopropyl ester]
	10 to 500	100 to 9000	CC(=O)Nc1cccc(-c2cc3cc(NC(=O)OCc4ccccc4)cnc3[nH]2)c1 [Example 9-23, [2-(3-Acetylamino-phenyl)-1H-pyrrolo[2,3-b]pyridin-5-yl]-carbamic acid benzyl ester]
	10 to 500	100 to 9000	CC(=O)Nc1ccc(-c2cc3cc(NC(=O)OCC(C)(C)C)cnc3[nH]2)cc1 [Example 9-25, [2-(4-Acetylamino-phenyl)-1H-pyrrolo[2,3-b]pyridin-5-yl]-carbamic acid 2,2-dimethyl-propyl ester]
	10 to 500	100 to 9000	CC(=O)Nc1cccc(-c2cc3cc(NC(=O)OCC(C)C)cnc3[nH]2)c1 [Example 9-28, [2-(3-Acetylamino-phenyl)-1H-pyrrolo[2,3-b]pyridin-5-yl]-carbamic acid isobutyl ester]
	10 to 500	100 to 9000	CC(C)OC(=O)Nc1cnc2[nH]c(-c3ccc(F)c(F)c3)nc2c1 [Example 10-1, [2-(3,4-Difluoro-phenyl)-3H-imidazo[4,5-b]pyridin-6-yl]-carbamic acid isopropyl ester]
	10 to 500	100 to 9000	COCCN(CCOC)c1ccc(-c2nc3cc(NC(=O)OC(C)C)cnc3[nH]2)cc1F [Example 10-2, (2-{4-[Bis-(2-methoxy-ethyl)-amino]-3-fluoro-phenyl}-3H-imidazo[4,5-b]pyridin-6-yl)-carbamic acid isopropyl ester]
	500 to 1500	2000 to 9000	CC(C)OC(=O)Nc1cnc2[nH]c(-c3cccc(C(=O)O)c3)nc2c1 [Example 11-1, 3-(6-Isopropoxycarbonylamino-3H-imidazo[4,5-b]pyridin-2-yl)-benzoic acid]
	10 to 500	100 to 9000	COCC(COC)NC(=O)c1cccc(-c2nc3cc(NC(=O)OC(C)C)cnc3[nH]2)c1 [Example 11-2, {2-[3-(2-Methoxy-1-methoxymethyl-ethylcarbamoyl)-phenyl]-3H-imidazo[4,5-b]pyridin-6-yl}-carbamic acid isopropyl ester]
	10 to 500	100 to 9000	COCCCNC(=O)c1cccc(-c2nc3cc(NC(=O)OC(C)C)cnc3[nH]2)c1 [Example 11-3, {2-[3-(3-Methoxy-propylcarbamoyl)-phenyl]-3H-imidazo[4,5-b]pyridin-6-yl}-carbamic acid isopropyl ester]
	10 to 500	100 to 9000	CC(C)OC(=O)Nc1cnc2[nH]c(-c3ccnc(Cl)c3)nc2c1 [Example 12-1, [2-(2-Chloro-pyridin-4-yl)-3H-imidazo[4,5-b]pyridin-6-yl]-carbamic acid isopropyl ester]
